Measured values as given in the NIST ThermoML archive (doi:10.1021/acs.jced.8b00157).
“And” between values parts separate entries of the source, which are not always exact repeats. Equal entries are not always repeated.

Assay: an = ratio of the nth substance listed
Settings: 100 kPa, Liquid, Buoyancy - hydrostatic balance, a2 = 1.3

[F][Al]([F])[F] [aluminum fluoride] + [F-].[K+]
Settings	mass density
1013.8 K	1821 kg/m3
1014 K	1822 kg/m3
1014.2 K	1821 kg/m3
1014.4 K	1822 kg/m3
1014.5 K	1822 kg/m3
1014.9 K	1821 kg/m3
1015.1 K	1821 kg/m3
1015.2 K	1820 kg/m3 and 1821 kg/m3
1015.3 K	1822 kg/m3
1015.5 K	1821 kg/m3
1015.7 K	1820 kg/m3
1016.1 K	1819 kg/m3
1016.3 K	1820 kg/m3
1016.5 K	1819 kg/m3
1016.7 K	1819 kg/m3
1016.8 K	1819 kg/m3
1017 K	1818 kg/m3
1017.4 K	1818 kg/m3
1017.8 K	1819 kg/m3
1018 K	1818 kg/m3
1018.1 K	1818 kg/m3
1018.2 K	1819 kg/m3
1018.4 K	1819 kg/m3 and 1816 kg/m3
1018.5 K	1818 kg/m3
1018.6 K	1817 kg/m3
1018.9 K	1816 kg/m3
1019.5 K	1818 kg/m3
1019.7 K	1816 kg/m3
1019.8 K	1817 kg/m3
1019.9 K	1817 kg/m3 and 1815 kg/m3 and 1816 kg/m3
1020.3 K	1816 kg/m3
1020.5 K	1815 kg/m3
1020.8 K	1815 kg/m3
1021 K	1816 kg/m3
1021.1 K	1816 kg/m3
1021.2 K	1814 kg/m3
1021.4 K	1815 kg/m3
1021.7 K	1816 kg/m3 and 1815 kg/m3
1022 K	1813 kg/m3
1022.1 K	1815 kg/m3
1022.6 K	1815 kg/m3
1022.8 K	1813 kg/m3
1022.9 K	1812 kg/m3
1023 K	1814 kg/m3
1023.1 K	1814 kg/m3
1023.2 K	1814 kg/m3
1023.4 K	1813 kg/m3
1023.7 K	1812 kg/m3
1024 K	1813 kg/m3
1024.1 K	1812 kg/m3
1024.4 K	1812 kg/m3
1024.9 K	1813 kg/m3 and 1811 kg/m3
1025 K	1811 kg/m3
1025.2 K	1813 kg/m3
1025.6 K	1810 kg/m3
1025.7 K	1810 kg/m3
1025.8 K	1812 kg/m3
1026 K	1812 kg/m3
1026.2 K	1812 kg/m3
1026.4 K	1810 kg/m3
1026.5 K	1809 kg/m3
1026.6 K	1810 kg/m3
1026.7 K	1811 kg/m3
1026.9 K	1809 kg/m3
1027.1 K	1810 kg/m3
1027.2 K	1808 kg/m3
1027.3 K	1811 kg/m3
1027.4 K	1808 kg/m3
1027.5 K	1809 kg/m3
1027.9 K	1809 kg/m3
1028 K	1809 kg/m3
1028.1 K	1809 kg/m3
1028.3 K	1807 kg/m3
1028.6 K	1807 kg/m3
1028.7 K	1807 kg/m3
1028.9 K	1808 kg/m3
1029.1 K	1806 kg/m3
1029.3 K	1807 kg/m3 and 1808 kg/m3
1029.4 K	1807 kg/m3
1029.8 K	1806 kg/m3
1030.3 K	1806 kg/m3
1030.6 K	1807 kg/m3 and 1806 kg/m3
1030.9 K	1805 kg/m3
1031.1 K	1806 kg/m3 and 1804 kg/m3
1031.5 K	1804 kg/m3
1031.7 K	1805 kg/m3 and 1806 kg/m3
1031.8 K	1805 kg/m3
1032.3 K	1803 kg/m3
1032.5 K	1805 kg/m3
1032.6 K	1803 kg/m3
1032.7 K	1804 kg/m3
1032.9 K	1804 kg/m3
1033.1 K	1803 kg/m3
1033.3 K	1803 kg/m3 and 1804 kg/m3
1033.5 K	1803 kg/m3
1033.7 K	1801 kg/m3 and 1802 kg/m3
1033.8 K	1803 kg/m3
1033.9 K	1804 kg/m3
1034.1 K	1802 kg/m3
1034.5 K	1801 kg/m3
1034.8 K	1802 kg/m3 and 1801 kg/m3
1034.9 K	1802 kg/m3
1035.3 K	1801 kg/m3 and 1800 kg/m3
1035.6 K	1800 kg/m3
1035.7 K	1799 kg/m3
1036.4 K	1799 kg/m3
1036.6 K	1801 kg/m3 and 1798 kg/m3
1037 K	1799 kg/m3
1037.1 K	1801 kg/m3
1037.5 K	1797 kg/m3
1037.7 K	1798 kg/m3
1038.1 K	1800 kg/m3 and 1797 kg/m3
1038.2 K	1799 kg/m3
1038.4 K	1796 kg/m3
1038.5 K	1799 kg/m3
1038.6 K	1799 kg/m3
1038.9 K	1799 kg/m3
1039 K	1796 kg/m3
